# Experimental data reported in BigSolDB 2.1.
smiles,measurement,setting,value
O=C(O)CSc1ccc2ccccc2c1,solubility (mole fraction),"in DMF, 278.15 K",0.00524
same,solubility (mole fraction),"in DMF, 283.15 K",0.00586
same,solubility (mole fraction),"in DMF, 288.15 K",0.0066
same,solubility (mole fraction),"in DMF, 293.15 K",0.00738
same,solubility (mole fraction),"in DMF, 298.15 K",0.00828
same,solubility (mole fraction),"in DMF, 303.15 K",0.00917
same,solubility (mole fraction),"in DMF, 308.15 K",0.0101
same,solubility (mole fraction),"in DMF, 313.15 K",0.0112
same,solubility (mole fraction),"in DMF, 318.15 K",0.0122
same,solubility (mole fraction),"in DMF, 323.15 K",0.0135
same,solubility (mole fraction),"in ethanol, 278.15 K",0.0014
same,solubility (mole fraction),"in ethanol, 283.15 K",0.0018
same,solubility (mole fraction),"in ethanol, 288.15 K",0.00234
same,solubility (mole fraction),"in ethanol, 293.15 K",0.00282
same,solubility (mole fraction),"in ethanol, 298.15 K",0.00336
same,solubility (mole fraction),"in ethanol, 303.15 K",0.00394
same,solubility (mole fraction),"in ethanol, 308.15 K",0.00456
same,solubility (mole fraction),"in ethanol, 313.15 K",0.0052
same,solubility (mole fraction),"in ethanol, 318.15 K",0.00584
same,solubility (mole fraction),"in ethanol, 323.15 K",0.00669
same,solubility (mole fraction),"in isopropanol, 278.15 K",0.000227
same,solubility (mole fraction),"in isopropanol, 283.15 K",0.0003
same,solubility (mole fraction),"in isopropanol, 288.15 K",0.000383
same,solubility (mole fraction),"in isopropanol, 293.15 K",0.000481
same,solubility (mole fraction),"in isopropanol, 298.15 K",0.00058
same,solubility (mole fraction),"in isopropanol, 303.15 K",0.000682
same,solubility (mole fraction),"in isopropanol, 308.15 K",0.000801
same,solubility (mole fraction),"in isopropanol, 313.15 K",0.000919
same,solubility (mole fraction),"in isopropanol, 318.15 K",0.00105
same,solubility (mole fraction),"in isopropanol, 323.15 K",0.0012
same,solubility (mole fraction),"in methanol, 278.15 K",0.00053
same,solubility (mole fraction),"in methanol, 283.15 K",0.000675
same,solubility (mole fraction),"in methanol, 288.15 K",0.000828
same,solubility (mole fraction),"in methanol, 293.15 K",0.00102
same,solubility (mole fraction),"in methanol, 298.15 K",0.00119
same,solubility (mole fraction),"in methanol, 303.15 K",0.0014
same,solubility (mole fraction),"in methanol, 308.15 K",0.0016
same,solubility (mole fraction),"in methanol, 313.15 K",0.0018
same,solubility (mole fraction),"in methanol, 318.15 K",0.00204
same,solubility (mole fraction),"in methanol, 323.15 K",0.00235
same,solubility (mole fraction),"in water, 278.15 K",1.42e-06
same,solubility (mole fraction),"in water, 283.15 K",1.95e-06
same,solubility (mole fraction),"in water, 288.15 K",2.54e-06
same,solubility (mole fraction),"in water, 293.15 K",3.16e-06
same,solubility (mole fraction),"in water, 298.15 K",3.88e-06
same,solubility (mole fraction),"in water, 303.15 K",4.53e-06
same,solubility (mole fraction),"in water, 308.15 K",5.33e-06
same,solubility (mole fraction),"in water, 313.15 K",6.1e-06
same,solubility (mole fraction),"in water, 318.15 K",7e-06
same,solubility (mole fraction),"in water, 323.15 K",8.05e-06
